Literature values as cited in US9333171B2, “Controlled-release CNS modulating compositions and methods for the treatment of otic disorders” (Otonomy, Inc., priority 2008, dated 2016).

Legend:
V2-R = details: infusion into the scala tympani
guinea pigs = details: chronic administration in guinea pigs

Row | SMILES | Effect on Meniere's disease symptoms (V2-R) | Induction of endolymphatic hydrops (guinea pigs)
1 | Cc1ccccc1C(=O)Nc1ccc(C(=O)N2CCCC(N(C)C)c3ccccc32)cc1 (centres unmarked) [OPC-31260] | marked reduction of Meniere's disease symptoms | 
2 | NC(=O)CC[C@@H]1NC(=O)[C@H](Cc2ccccc2)NC(=O)[C@H](Cc2ccc(O)cc2)NC(=O)[C@@H](N)CSSC[C@@H](C(=O)N2CCC[C@H]2C(=O)N[C@@H](CCCN=C(N)N)C(=O)NCC(N)=O)NC(=O)[C@H](CC(N)=O)NC1=O [VP, vasopressin] |  | induce endolymphatic hydrops
